Measured values as given in ChEMBL document CHEMBL5465560, “Selectivity Literature for EUbOPEN Chemogenomic Library” (2024).
Each block holds one compound with its values, some of them ahead of it.

Key:
[1] = target: Ribosomal protein S6 kinase alpha-4 (Homo sapiens) (UniProt O75676); assay: Selectivity interaction (KinomeScan (DiscoverX)) EUB0000666a RPS6KA4; conditions: at 10 µM
[2] = target: Mitogen-activated protein kinase kinase kinase 20 (Homo sapiens) (UniProt Q9NYL2); assay: Selectivity interaction (ActivX KiNativ screen (kinase selectivity in THP-1 cell lysates)) EUB0000639a MAP3K20; assay type: subcellular; conditions: lysate
Mitogen-activated protein kinase kinase kinase 20 (Homo sapiens), sequence (Q9NYL2 2-800 limits assumed): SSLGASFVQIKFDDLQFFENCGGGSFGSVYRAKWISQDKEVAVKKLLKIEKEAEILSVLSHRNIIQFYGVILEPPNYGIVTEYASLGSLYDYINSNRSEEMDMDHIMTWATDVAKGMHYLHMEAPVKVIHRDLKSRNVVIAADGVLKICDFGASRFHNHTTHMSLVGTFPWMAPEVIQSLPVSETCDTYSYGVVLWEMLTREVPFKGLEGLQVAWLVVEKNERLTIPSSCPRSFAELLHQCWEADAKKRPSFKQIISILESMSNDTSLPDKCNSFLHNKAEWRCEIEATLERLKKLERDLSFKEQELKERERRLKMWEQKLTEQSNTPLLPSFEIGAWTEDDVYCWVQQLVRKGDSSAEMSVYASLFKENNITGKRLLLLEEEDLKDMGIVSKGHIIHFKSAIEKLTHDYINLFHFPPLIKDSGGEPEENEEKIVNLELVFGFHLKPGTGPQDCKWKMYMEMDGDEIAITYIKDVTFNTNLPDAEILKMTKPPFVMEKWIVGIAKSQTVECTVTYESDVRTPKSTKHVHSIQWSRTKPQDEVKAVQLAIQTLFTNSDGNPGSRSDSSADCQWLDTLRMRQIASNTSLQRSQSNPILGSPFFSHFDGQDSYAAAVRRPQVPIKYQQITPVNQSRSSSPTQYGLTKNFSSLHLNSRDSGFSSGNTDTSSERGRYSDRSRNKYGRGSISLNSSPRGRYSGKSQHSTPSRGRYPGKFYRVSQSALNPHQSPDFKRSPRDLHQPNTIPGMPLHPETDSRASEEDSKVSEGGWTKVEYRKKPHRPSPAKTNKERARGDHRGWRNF

[3] = target: T1, Serine/threonine-protein kinase ULK1 (Homo sapiens) (UniProt O75385); assay: Selectivity interaction (ActivX KiNativ screen (kinase selectivity in THP-1 cell lysates)) EUB0000639a ULK1; assay type: subcellular; conditions: lysate, at 0.04 µM
T1 sequence (whole entry): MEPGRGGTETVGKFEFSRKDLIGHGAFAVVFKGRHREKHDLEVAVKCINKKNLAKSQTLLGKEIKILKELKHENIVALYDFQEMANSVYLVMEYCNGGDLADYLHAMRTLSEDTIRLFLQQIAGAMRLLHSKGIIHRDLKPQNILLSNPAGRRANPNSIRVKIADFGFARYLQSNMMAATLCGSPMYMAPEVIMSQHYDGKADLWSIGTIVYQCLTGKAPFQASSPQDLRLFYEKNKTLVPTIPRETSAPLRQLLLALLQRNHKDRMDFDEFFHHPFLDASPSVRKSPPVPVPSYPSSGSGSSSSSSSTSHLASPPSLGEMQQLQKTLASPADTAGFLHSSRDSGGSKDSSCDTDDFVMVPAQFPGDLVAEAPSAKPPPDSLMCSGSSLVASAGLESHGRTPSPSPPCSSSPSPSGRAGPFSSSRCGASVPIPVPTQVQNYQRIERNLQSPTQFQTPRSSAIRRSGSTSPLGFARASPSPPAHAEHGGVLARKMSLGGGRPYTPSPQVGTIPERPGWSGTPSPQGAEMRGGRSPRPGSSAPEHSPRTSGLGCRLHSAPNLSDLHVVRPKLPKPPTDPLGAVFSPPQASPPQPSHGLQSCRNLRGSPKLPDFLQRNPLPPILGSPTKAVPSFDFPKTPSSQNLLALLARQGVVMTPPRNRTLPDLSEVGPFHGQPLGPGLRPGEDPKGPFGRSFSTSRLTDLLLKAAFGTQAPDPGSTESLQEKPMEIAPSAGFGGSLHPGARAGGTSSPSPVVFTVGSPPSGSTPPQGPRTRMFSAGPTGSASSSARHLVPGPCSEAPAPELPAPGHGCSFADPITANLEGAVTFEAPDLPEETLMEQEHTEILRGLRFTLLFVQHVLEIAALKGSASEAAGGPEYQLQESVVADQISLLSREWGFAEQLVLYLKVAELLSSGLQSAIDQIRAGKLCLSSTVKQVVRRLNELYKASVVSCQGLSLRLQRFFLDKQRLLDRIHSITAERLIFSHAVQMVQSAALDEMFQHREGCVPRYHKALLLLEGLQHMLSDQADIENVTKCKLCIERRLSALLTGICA

[4] = target: T2, cGMP-dependent protein kinase 2 (Homo sapiens) (UniProt Q13237); assay: Selectivity interaction (KinomeScan (DiscoverX)) EUB0000595a PRKG2; conditions: at 10 µM
T2 sequence (whole entry): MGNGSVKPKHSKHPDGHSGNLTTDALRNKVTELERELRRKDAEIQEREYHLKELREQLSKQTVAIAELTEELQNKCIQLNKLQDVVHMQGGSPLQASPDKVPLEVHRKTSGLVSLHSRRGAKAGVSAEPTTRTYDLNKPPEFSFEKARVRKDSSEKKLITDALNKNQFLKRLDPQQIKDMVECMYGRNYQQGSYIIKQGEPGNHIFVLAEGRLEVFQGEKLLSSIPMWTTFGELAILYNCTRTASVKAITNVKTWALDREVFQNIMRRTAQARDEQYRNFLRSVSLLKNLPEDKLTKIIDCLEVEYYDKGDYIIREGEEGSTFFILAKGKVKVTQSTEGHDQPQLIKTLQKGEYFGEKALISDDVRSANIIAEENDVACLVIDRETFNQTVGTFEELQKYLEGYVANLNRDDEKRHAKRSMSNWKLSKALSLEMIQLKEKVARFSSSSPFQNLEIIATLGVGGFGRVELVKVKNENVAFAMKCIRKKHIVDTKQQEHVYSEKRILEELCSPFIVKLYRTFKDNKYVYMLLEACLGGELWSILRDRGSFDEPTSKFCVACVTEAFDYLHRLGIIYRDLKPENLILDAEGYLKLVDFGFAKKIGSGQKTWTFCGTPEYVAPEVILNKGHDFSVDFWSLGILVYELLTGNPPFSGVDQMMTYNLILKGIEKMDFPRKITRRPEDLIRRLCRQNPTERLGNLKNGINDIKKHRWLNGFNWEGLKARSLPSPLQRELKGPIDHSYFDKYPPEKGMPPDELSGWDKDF

[5] = system: Epidermal growth factor receptor (Homo sapiens), P00533 [UNDEFINED MUTATION]; assay: Selectivity interaction (KinomeScan (DiscoverX)) EUB0001049a EGFR; conditions: at 1 µM
Epidermal growth factor receptor (Homo sapiens), P00533 [UNDEFINED MUTATION], sequence (P00533 whole entry, looked up, stated change not applied): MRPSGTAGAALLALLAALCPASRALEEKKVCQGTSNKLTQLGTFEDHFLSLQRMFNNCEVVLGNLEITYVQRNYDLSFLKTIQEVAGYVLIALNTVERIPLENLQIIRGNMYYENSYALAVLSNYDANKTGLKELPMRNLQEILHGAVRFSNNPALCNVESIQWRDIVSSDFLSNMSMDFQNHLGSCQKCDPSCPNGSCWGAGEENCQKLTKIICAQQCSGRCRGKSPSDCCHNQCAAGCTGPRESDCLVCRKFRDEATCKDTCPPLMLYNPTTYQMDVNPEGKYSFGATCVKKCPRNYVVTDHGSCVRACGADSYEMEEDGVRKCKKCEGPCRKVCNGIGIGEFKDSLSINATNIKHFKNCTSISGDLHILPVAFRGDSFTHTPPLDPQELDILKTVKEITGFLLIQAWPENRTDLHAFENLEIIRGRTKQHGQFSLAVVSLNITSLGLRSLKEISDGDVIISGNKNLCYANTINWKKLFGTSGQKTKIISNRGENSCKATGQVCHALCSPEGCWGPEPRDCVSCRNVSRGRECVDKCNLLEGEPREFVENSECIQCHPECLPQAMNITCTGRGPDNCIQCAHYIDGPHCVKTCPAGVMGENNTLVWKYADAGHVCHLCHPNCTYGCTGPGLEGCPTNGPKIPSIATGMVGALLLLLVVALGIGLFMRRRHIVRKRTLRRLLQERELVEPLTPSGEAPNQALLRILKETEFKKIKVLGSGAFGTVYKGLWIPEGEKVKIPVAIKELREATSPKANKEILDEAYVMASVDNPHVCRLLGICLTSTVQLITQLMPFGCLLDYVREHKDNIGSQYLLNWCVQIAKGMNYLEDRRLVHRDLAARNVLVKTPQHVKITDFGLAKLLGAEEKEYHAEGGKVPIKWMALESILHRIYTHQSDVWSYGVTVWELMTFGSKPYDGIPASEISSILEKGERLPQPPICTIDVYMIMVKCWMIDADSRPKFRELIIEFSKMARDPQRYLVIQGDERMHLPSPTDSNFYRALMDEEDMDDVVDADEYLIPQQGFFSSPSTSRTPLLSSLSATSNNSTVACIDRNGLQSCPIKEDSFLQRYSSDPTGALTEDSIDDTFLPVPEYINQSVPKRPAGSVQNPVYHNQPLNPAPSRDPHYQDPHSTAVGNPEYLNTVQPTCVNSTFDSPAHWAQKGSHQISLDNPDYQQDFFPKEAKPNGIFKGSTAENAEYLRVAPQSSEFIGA

[6] = system: Tyrosine-protein kinase ABL1 (Homo sapiens), P00519 [F317L]; assay: Selectivity interaction (Ambit KINOMEscan and KiNATiv profiling in Jurkat cells) EUB0000090b ABL1; assay type: cell-based; conditions: at 1 µM
Tyrosine-protein kinase ABL1 (Homo sapiens), P00519 [F317L], sequence (P00519 whole entry F317L): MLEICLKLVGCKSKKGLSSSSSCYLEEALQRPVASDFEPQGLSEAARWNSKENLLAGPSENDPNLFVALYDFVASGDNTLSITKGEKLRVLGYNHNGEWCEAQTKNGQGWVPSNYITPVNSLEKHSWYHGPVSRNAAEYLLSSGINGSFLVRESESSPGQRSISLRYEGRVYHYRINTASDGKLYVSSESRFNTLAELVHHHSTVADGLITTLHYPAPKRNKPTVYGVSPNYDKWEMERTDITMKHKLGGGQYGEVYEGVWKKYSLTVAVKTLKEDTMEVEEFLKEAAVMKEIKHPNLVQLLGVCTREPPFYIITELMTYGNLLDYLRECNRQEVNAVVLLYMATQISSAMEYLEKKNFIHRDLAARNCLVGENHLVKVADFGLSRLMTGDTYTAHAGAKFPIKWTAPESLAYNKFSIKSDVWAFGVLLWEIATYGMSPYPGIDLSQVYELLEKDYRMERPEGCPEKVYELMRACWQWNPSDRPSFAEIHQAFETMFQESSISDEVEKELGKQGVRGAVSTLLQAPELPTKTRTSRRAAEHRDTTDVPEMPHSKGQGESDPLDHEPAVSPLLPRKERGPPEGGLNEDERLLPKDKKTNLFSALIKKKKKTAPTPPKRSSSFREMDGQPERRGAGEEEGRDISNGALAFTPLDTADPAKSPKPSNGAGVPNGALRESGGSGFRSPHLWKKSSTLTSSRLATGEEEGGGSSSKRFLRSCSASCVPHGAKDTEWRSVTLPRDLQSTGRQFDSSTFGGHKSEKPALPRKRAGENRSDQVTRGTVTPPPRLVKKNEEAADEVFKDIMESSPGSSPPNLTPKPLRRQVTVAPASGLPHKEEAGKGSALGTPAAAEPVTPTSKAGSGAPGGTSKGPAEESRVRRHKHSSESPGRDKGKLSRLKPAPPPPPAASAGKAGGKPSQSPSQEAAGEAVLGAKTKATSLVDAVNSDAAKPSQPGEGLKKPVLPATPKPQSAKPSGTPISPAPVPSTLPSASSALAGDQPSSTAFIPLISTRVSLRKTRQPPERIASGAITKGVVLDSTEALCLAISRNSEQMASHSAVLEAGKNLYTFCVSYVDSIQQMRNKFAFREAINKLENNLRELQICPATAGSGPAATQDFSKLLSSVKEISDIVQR

[7] = target: Protein-tyrosine kinase 6 (Homo sapiens, UniProt Q13882); assay: Selectivity interaction (KinomeScan (DiscoverX)) EUB0000655a PTK6; conditions: at 10 µM
Protein-tyrosine kinase 6, sequence (Q13882 whole entry, looked up): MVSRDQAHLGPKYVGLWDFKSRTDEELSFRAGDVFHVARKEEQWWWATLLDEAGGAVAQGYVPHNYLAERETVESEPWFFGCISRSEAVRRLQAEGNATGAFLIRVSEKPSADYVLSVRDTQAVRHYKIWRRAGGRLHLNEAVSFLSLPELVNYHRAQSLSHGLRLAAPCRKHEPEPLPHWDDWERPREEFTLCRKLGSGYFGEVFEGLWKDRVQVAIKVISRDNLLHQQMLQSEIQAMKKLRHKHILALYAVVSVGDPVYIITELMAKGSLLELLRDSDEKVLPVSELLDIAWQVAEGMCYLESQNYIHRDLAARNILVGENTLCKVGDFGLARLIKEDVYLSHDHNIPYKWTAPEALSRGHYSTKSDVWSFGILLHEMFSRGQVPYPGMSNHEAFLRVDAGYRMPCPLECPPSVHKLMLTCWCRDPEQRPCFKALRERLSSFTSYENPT

[8] = target: Ribosomal protein S6 kinase alpha-4 (Homo sapiens) (UniProt O75676); assay: Selectivity interaction (KinomeScan (DiscoverX)) EUB0000092b RPS6KA4; conditions: at 10 µM
[9] = target: Mitogen-activated protein kinase 7 (Homo sapiens) (UniProt Q13164); assay: Selectivity interaction (Kinase panel (Carna Biosciences)) EUB0001542aTs MAPK7; conditions: at 1 µM
[10] = target: T3, Aurora kinase A (Homo sapiens) (UniProt O14965); assay: Selectivity interaction (Kinase panel (Carna Biosciences)) EUB0001542aTs STK6; conditions: at 1 µM
T3 sequence (whole entry): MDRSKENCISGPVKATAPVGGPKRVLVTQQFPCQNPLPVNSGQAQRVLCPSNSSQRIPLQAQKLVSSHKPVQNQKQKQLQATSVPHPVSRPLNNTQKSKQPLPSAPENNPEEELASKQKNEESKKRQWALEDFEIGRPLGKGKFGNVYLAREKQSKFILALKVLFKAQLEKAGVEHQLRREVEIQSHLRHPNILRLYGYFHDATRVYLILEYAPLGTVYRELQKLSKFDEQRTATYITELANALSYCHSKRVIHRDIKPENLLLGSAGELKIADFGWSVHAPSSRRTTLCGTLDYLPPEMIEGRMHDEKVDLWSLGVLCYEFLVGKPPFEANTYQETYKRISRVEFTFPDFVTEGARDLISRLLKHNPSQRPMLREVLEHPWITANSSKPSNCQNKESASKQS

[11] = target: Protein kinase C eta type (Homo sapiens) (UniProt P24723); assay: Selectivity interaction (KinomeScan (DiscoverX)) EUB0000618a PRKCH; conditions: at 10 µM
Protein kinase C eta type (Homo sapiens), sequence (P24723 whole entry): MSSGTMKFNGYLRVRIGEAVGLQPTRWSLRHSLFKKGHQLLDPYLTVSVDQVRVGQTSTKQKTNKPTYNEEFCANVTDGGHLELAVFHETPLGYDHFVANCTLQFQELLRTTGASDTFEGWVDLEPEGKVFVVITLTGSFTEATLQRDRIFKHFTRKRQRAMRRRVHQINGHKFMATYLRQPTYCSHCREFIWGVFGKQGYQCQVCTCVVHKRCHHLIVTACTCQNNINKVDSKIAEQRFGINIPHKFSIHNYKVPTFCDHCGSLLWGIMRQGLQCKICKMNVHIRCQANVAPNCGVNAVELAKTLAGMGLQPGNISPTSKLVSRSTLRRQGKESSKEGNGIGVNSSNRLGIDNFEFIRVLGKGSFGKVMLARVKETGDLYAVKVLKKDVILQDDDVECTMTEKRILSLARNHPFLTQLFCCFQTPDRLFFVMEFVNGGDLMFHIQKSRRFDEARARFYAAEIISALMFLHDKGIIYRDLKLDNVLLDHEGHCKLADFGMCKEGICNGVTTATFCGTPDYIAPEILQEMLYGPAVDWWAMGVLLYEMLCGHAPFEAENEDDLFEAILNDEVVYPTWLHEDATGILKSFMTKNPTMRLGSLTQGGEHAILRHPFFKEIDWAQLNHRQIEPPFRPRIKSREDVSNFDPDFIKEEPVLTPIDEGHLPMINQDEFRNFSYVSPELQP

Ribosomal protein S6 kinase alpha-4 (Homo sapiens), sequence (O75676 whole entry, looked up): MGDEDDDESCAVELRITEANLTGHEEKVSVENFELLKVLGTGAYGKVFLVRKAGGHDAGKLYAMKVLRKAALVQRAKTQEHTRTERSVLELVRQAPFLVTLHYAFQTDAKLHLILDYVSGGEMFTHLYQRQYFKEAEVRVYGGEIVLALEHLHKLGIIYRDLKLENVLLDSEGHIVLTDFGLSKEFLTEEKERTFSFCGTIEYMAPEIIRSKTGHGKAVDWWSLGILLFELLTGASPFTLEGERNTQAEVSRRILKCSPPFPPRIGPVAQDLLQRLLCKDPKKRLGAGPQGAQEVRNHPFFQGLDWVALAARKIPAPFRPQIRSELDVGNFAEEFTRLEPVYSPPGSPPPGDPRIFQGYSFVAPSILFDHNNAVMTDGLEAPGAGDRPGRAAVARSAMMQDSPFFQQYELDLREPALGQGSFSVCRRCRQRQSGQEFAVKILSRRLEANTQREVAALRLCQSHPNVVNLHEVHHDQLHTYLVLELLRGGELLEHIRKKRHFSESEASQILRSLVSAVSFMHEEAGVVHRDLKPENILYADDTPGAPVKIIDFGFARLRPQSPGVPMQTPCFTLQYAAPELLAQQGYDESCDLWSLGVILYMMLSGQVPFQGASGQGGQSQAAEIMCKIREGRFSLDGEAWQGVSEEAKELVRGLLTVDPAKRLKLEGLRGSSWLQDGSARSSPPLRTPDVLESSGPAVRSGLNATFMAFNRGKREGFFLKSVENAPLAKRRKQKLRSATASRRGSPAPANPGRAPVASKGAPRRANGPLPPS

SMILES: O=C(NOC[C@H](O)CO)c1ccc(F)c(F)c1Nc1ccc(I)cc1F
% of control [1]: 100%

% of inhibition ([2]; at 0.01 µM): -7.8% | % of inhibition ([2]; at 0.04 µM): -3.3% | % of inhibition ([2]; at 0.2 µM): 9.5% | % of inhibition ([2]; at 1 µM): 12.2% | % of inhibition ([2]; at 5 µM): -6.6% | % of inhibition [3]: -12.7%
SMILES: CC[C@@H]1[C@H](F)C(=O)N[C@@H]1COc1nccc2cc(C(N)=O)c(OC)cc12 [ZIMLOVISERTIB]

SMILES: COCC(=O)NC/C=C/c1ccc2ncnc(Nc3ccc(Oc4ccc(C)nc4)c(C)c3)c2c1 [CP-724714]
% of control [4]: 100%

SMILES: COc1cc(Nc2nc(C)cc(-c3cnn4nc(OC)ccc34)n2)cc(C(F)(F)F)c1
% of control [5]: 77%

SMILES: CN(C)C/C=C/C(=O)Nc1ccc(C(=O)N2CCCC(Nc3ncc(Cl)c(-c4c[nH]c5ccccc45)n3)C2)cc1 (stereo not given)
% of control [6]: 100%

SMILES: CN(C)CCOc1ccc(-c2nc(-c3ccncc3)c(-c3ccc4c(c3)CC/C4=N\O)[nH]2)cc1
% of control [7]: 82%

SMILES: CCC(=O)N1CCN(c2ccc(-n3c(=O)ccc4cnc5ccc(-c6cnc7ccccc7c6)cc5c43)cc2C(F)(F)F)CC1
% of control [8]: 100%

% of inhibition [9]: 63% | % of inhibition [10]: 62%
SMILES: Cn1cc(Nc2nccc(N3CC4CCC(C3)N4C(=O)[C@@H]3CC3(F)F)n2)cn1

SMILES: O[C@H]1CC[C@H](Nc2ncc3nc(Nc4c(F)cc(F)cc4F)n([C@H]4CCOC4)c3n2)CC1
% of control [11]: 96%
